Reference: patent publication US20260294906A1, “TREATING PSORIASIS USING A SMALL MOLECULE INHIBITOR OF TUMOR NECROSIS FACTOR ALPHA” (SANOFI, priority 2023, published 2026)
Several values for one entry are separate records, joined by “and”; a condition that tells them apart may be missing. Equal values may be shown once. Entries after “also recorded” stand apart in the source; their conditions may differ.

Tests used:
[1] = tested on: patients with mild to moderate psoriasis; experiment: Clinical response by Psoriasis Area and Severity Index (PASI) score, phase 1 placebo-controlled study; format: in vivo, human; settings: for LSm (±SE) % improvement from baseline in total PASI score: 200 mg BID oral, fed; for LSm (±SE) % improvement from baseline in total PASI score / ΔLSm (±SE) (Compound 1 minus placebo) in % improvement from baseline in total PASI score: MMRM
Experimental: (§1) A double-blind, randomized, placebo-controlled phase 1 study was carried out in participants with mild to moderate psoriasis. Study participants were randomized to 200 mg twice a day (BID) of Compound 1 or placebo in 2:1 ratio (approximately 24 in the treatment group and 12 in the placebo group). The study comprised an up to 4-week screening period, and a 4-week treatment period with Compound 1 or placebo. An end-of-study visit was carried out 10±3 days after the last investigational medicinal product (IMP) administration.
(§2) The primary objective of the study was to assess the safety, tolerability, and clinical efficacy of Compound 1 at 200 mg BID via oral administration. Also evaluated was the clinical effect of Compound 1 as compared to placebo on the percent change in PASI and TLS scores from baseline to week 2 and week 4. The percent change in PASI score from baseline to week 4 was determined. TLS score was also assessed over the same time period. Also assessed was the effect of Compound 1 on biomarkers of psoriasis. Blood samples collected at predetermined time points were processed to quantify serum levels of biomarkers, including interleukin (IL)-17A, IL-17F, and IL-22 by high sensitivity methods. IL-17A, IL-17F and IL-22 are the main cytokines released by Th17 cells. Plasma levels of Compound 1 were measured to assess pharmacokinetics in the study population.
(§3) Two study interventions were used, Compound 1 and placebo. The Compound 1 intervention comprised 4× tablets of Compound 1 50 mg twice daily, i.e. 200 mg BID, for 4 weeks. The placebo intervention was 4× tablets of placebo twice daily for 4 weeks. Tablets were administered orally.
The interventions were used in two arms of the study. Arm 1 was the experimental arm and it involved participants receiving 200 mg of Compound BID for 4 weeks under fed conditions. Arm 2 was the placebo arm and it involved participants receiving the matching placebo tablets for 4 weeks under fed conditions.
The PASI scoring system evaluates psoriasis based on the body surface area (BSA) involvement and morphological characteristics of the plaques (see, e.g., EMA Guidelines on clinical investigation of medicinal products indicated for the treatment of psoriasis, Nov. 18, 2004). BSA estimation was performed using the ‘palm’ (i.e., the subject's flat hand and thumb together, fingers not included). The palm thus defined represented 1% of the total BSA. The PASI combines assessments of four body areas: head (h, 10%), upper extremities (u, 20%), trunk (t, 30%) and lower extremities (1, 40%). Using the palm to assess BSA (as described above) the proportion of skin affected by psoriasis in each area was given a numerical score (A) representing the proportion involved: 1 (0 to 9%); 2 (10 to 29%); 3 (30 to 49%); 4 (50 to 69%); 5 (70 to 89%) and 6 (90 to 100%). Within each area the severity of three signs, erythema (E), thickness/induration (I), and desquamation/scaling (D), was each assessed on a five-point scale: 0, none; 1, mild; 2, moderate; 3, severe; 4, very severe. The PASI ranges from 0 to 72 and is calculated using the following formula: […]
The PASI score was assessed at baseline, 2 weeks and 4 weeks. Table 4 below presents the LSm (±SE) for each treatment and ΔLSm (Compound 1 minus placebo) with 90% confidence interval (CI) in percentage improvement from baseline in the total PASI score at week 2 and week 4.
The results in Table 4 were obtained using the MMRM.
Table 5 below presents the mean (±SEM) percentage improvements from baseline in the total PASI score at week 2 and week 4 in the patient population with PASI<10 (mild) or PASI≥[…] at baseline.
The results in Table 5 come from standard descriptive analysis, ^(1)N=3, ^(2)N=15.

[2] = tested on: participants with mild to moderate psoriasis; experiment: Adverse events and safety in the clinical study; format: in vivo, human
Experimental: as §1, §2, §3
Adverse events (AEs) were reported by the participant or observed by the Investigator, and were defined as follows: • An AE is any untoward medical occurrence in a patient or clinical study participant, temporally associated with the use of study intervention, whether or not considered related to the study intervention. • NOTE: An AE can therefore be any unfavorable and unintended sign (including an abnormal laboratory finding), symptom, or disease (new or exacerbated) temporally associated with the use of study intervention.
Events meeting the AE definition: • Any abnormal laboratory test results (hematology, clinical chemistry, or urinalysis) or other safety assessments (e.g., ECG, radiological scans, vital signs measurements), including those that worsen from baseline, considered clinically significant in the medical and scientific judgment of the Investigator (i.e., not related to progression of underlying disease), e.g.: • Symptomatic and/or • Requiring either corrective treatment or consultation, and/or • Leading to IMP discontinuation or modification of dosing, and/or • Fulfilling a seriousness criterion, and/or • Defined as an AESI • Exacerbation of a chronic or intermittent pre-existing condition including either an increase in frequency and/or intensity of the condition. • New condition detected or diagnosed after study intervention administration even though it may have been present before the start of the study. • Signs, symptoms, or the clinical sequelae of a suspected drug-drug interaction. • Signs, symptoms, or the clinical sequelae of a suspected overdose of either study intervention or a concomitant medication. • Lack of efficacy or failure of expected pharmacological action per se will not be reported as an AE or SAE. Such instances will be captured in the efficacy assessments. However, the signs, symptoms, and/or clinical sequelae resulting from lack of efficacy will be reported as AE or SAE if they fulfill the definition of an AE or SAE.
Complications that occur during hospitalization are AEs. If a complication prolongs hospitalization or fulfills any other serious criteria, the event is serious. […]

[3] = 200 mg BID, N = 26, placebo 33.3%

Structure (SMILES): CN1C(=O)c2cccc(OC(F)F)c2[C@H]2C[C@@H]1c1nc3ccc(-c4cnc(C5(N)CCC5)nc4)cc3n12 [Compound 1, (7R,14R)-11-[2-(1-aminocyclobutyl)pyrimidin-5-yl]-1-(difluoromethoxy)-6-methyl-6,7-dihydro-7,14-methanobenzimidazo[1,2-b][2,5]benzodiazocin-5(14H)-one]
- Mean (±SEM) % improvement from baseline in total PASI score ([1]; PASI < 10 (mild) population, week 2, 200 mg BID, N = 16, SEM 3.98): 21.24% and 21.2%
- Mean (±SEM) % improvement from baseline in total PASI score ([1]; PASI < 10 (mild) population, week 4, 200 mg BID, N = 15, SEM 5.34): 33.8% and 33.83%
- Mean (±SEM) % improvement from baseline in total PASI score ([1]; PASI ≥ 10 (moderate) population, week 2, 200 mg BID, N = 9): 9.3% and 9.31% and 9.3 (3.60) %
- Mean (±SEM) % improvement from baseline in total PASI score ([1]; PASI ≥ 10 (moderate) population, week 4, 200 mg BID, N = 9): 33.2% and 33.19% and 33.2 (4.03) %
- improvement in PASI score (in words) ([1]; after 4 weeks of treatment): clinically meaningful
- improvement in psoriasis severity / clinical efficacy (in words) ([1]; compared to placebo, 4-week treatment, 200 mg BID): rapid and statistically significant improvement in psoriasis severity compared to placebo as early as week 2; also recorded: consistent clinical efficacy in a 4-week treatment period; also recorded: clinically effective, with sustained clinical response; also recorded: effective in improving clinical parameters in human patients
- LSm (±SE) % improvement from baseline in total PASI score ([1]; week 2, vs placebo 4.12%, p=0.005): 17.73% and 17.73 (2.75) %
- ΔLSm (±SE) (Compound 1 minus placebo) in % improvement from baseline in total PASI score ([1]; week 2, 200 mg BID, 90% CI 5.28 to 21.94): 13.61% and 13.61 (4.92) %
- LSm (±SE) % improvement from baseline in total PASI score ([1]; week 4, vs placebo 15.71%, p=0.009): 35.09% and 35.09 (4.47) %
- ΔLSm (±SE) (Compound 1 minus placebo) in % improvement from baseline in total PASI score ([1]; week 4, 200 mg BID, 90% CI 6.28 to 32.48): 19.4% and 19.38% and 19.38 (7.75) %
- mean reduction in total PASI score from baseline ([1]; week 4, FIG. 2, placebo around 1.25 points): around 3.0 points
- safety and tolerability (in words) ([2]; 200 mg BID over 28 days): safe and well-tolerated
- serious AEs (SAEs), severe TEAEs or AEs of special interest (AESI) ([2]; 200 mg BID, 4 weeks): no serious AEs (SAEs), severe TEAEs or AEs of special interest (AESI); also recorded: no serious AEs, severe treatment emergent AEs, or AESI being reported; also recorded: No serious or severe adverse events were observed
- Number of TEAEs leading to permanent study intervention discontinuation ([2]; 200 mg BID, 2 participants): 2
- drop-out due to CPK increase ([2]; 200 mg BID, Day 8, linked to increased physical activity): another participant dropped out on Day 8 due to CPK increase (grade 2) assessed by the investigator as non-drug related
- drop-out due to nausea ([2]; 200 mg BID, Day 15): one participant dropped out on Day 15 due to nausea assessed by the investigator as drug related
- Number of participants with Dysgeusia (PT) ([2]; 200 mg BID, N = 26, placebo 0): 16
- % of participants with Dysgeusia (PT) ([2]; 200 mg BID, N = 26, placebo 0%): 61.5%
- Number of participants with gastrointestinal disorders (SOC) ([2]; 200 mg BID, N = 26, placebo 2): 8
- Number of participants with headache (PT) ([2]; 200 mg BID, N = 26, placebo 4): 8
- Number of participants with infections and infestations (SOC) ([2]; 200 mg BID, N = 26, placebo 4): 4
- Number of participants with nervous systems disorders (SOC) ([2]; 200 mg BID, N = 26, placebo 4): 19
- % of participants with gastrointestinal disorders (SOC) ([2]; 200 mg BID, N = 26, placebo 16.7%): 30.8%
- % of participants with headache (PT) [2, 3]: 30.8%
- % of participants with infections and infestations (SOC) [2, 3]: 15.4%
- % of participants with nervous systems disorders (SOC) [2, 3]: 73.1%
- severity of TEAEs ([2]; 200 mg BID, NCI-CTCAE grades): All TEAEs were of grade 1 or grade 2 severity and participants fully recovered
- time for CPK value to return to baseline level ([2]; 200 mg BID, one participant, CPK increase grade 2): 7 days
- % of participants with treatment-emergent adverse events (TEAEs) ([2]; 26 participants, 200 mg BID, 4 weeks, placebo 58.3%): 92.3%
- Number of participants with treatment-emergent adverse events (TEAEs) ([2]; out of 26 participants, 200 mg BID, 4 weeks, placebo 7 of 12): 24
- PCSA for vital signs, ECG and laboratory parameters (in words) ([2]; scattered across placebo and Compound 1 groups): no safety concerns based on vital signs, ECG or laboratory results; also recorded: All were considered not clinically meaningful by the investigator
